Entries after “also recorded” stand apart in the source; their conditions may differ.
Experiments:
[1] = system: NSCs cultured in suspension; experiment: Phage biopanning (Ph.D.-7 library) against NSCs in suspension; type: binding, murine; conditions: after three rounds of biopanning; for %, eluted phage clones / Frequency, eluted phage clones: membrane bound phages (MP); for %, internalized phage clones / Frequency, internalized phage clones: internalized clones (IP)
Protocol: (§1) Two days prior cell seeding murine NSCs were mechanically dissociated in order to seed the maximum percentage of stem cells.
(§2) The Ph.D.-7 phage library was used (New England Biolabs), composed of phage clones with random 7-mer peptides fused to the N-terminal of PIII, a minor coat protein of M13 phage.
(§3) Before biopanning experiments against NSCs in adhesion, the phage library was incubated in a Laminin-coated tissue culture dish in order to remove phages with affinity to the Laminin coated plastic surface (negative selection). Mouse Laminin (10 mL at 25 μg/ml concentration) (Roche) was incubated overnight at 37° C. 10^12 cfu of phages were incubated for one hour at 37° C. in pre-warmed Incubation Medium (DMEM supplemented with 0.1% BSA) in Laminin-coated plastic surfaces (setting for adhering NSCs) or plain plastic surfaces (setting for NSCs in suspension). Then incubation Medium and a total volume of five washes of Washing Buffer (DPBS supplemented with 1% BSA and 0.05% Tween-20) were collected and eluted phages were amplified as described in the standard protocol of New England Biolabs.
(§4) 10^12 cfu of the negatively selected phage library were diluted in 10 ml Incubation Medium and pipetted onto the adhering NSCs or NSCs in suspension.
(§5) After 1 hour of incubation at 37° C. cells were washed five times with pre-warmed Washing Buffer, cell membrane bound phages (MP) and internalized clones (IP) were recovered from independent duplicates of differentiating progenies by eluting and/or lysing the cells respectively. The cell surface was stripped by a 5 minutes incubation of 5 ml of Glycine Buffer (0.2 M Glycine-HCl supplemented with 1 mg/ml BSA (pH 2.2)) at RT. Eluted Phages were neutralized with 5 ml of 1 M Tris-HCl buffer (pH 8) and amplified.
(§6) Cells were then lysed with 9 ml of Lysing Buffer (0.1% TEA in PBS) for 5 minutes at RT. Internalized phages were neutralized with 1 ml of 1 M Tris-HCl buffer.
(§7) Neutralized phages were titered by infection of Escherichia coli to monitor the selection. Internalized and eluted phages were amplified separately for another round of selection. Three rounds of positive selection were performed. At round number two and three the biopannings of internalized and eluted phages were performed in different cell cultures (but with identical culture conditions) by collecting the phages of interest (i.e. internalized phages from libraries of internalized phages) and discarding the leftovers.
(§8) After the third round of biopanning, phage clones were randomly picked out from the titer plates and sequenced. Thirty phage plaques per each set of phages were randomly picked for sequencing. A small number of clones wasn't successfully sequenced. […] In the case of panning against NSC in suspension the highest consensus was for KLPGWSG (SEQ ID NO: 10) (47.36 for MP), GETRAPL (SEQ ID NO: 12) (14.28% for IP and 10.52% for MP) and HAIYPRH (SEQ ID NO: 11) (28.57% for IP and 5.26% for MP).

murine NSCs [2] = experiment: Imaging and cell proliferation assay (CellTiter 96 MTS) on assembled hydrogels, murine NSCs; type: cell-based; conditions: 7 DIV; for cell viability / proliferated cell population (MTS): scaffolds 10 mg/ml, vs control, P<0.005
Protocol: (§9) In vitro tests were performed as previously described (8), in order to assess whether the biomaterials (assembled hydrogels) obtained with the SAPs of the present invention influenced NSCs adhesion, survival and/or differentiation. SAPeptides (30 μl for each well at a concentration of 10 mg/ml) were assembled into 96 multiwells two hours before cell. Cells (at a concentration of 2×10^4 cells/cm^2) were seeded on the top-surface of each assembled scaffold. Initially, cells were cultured with basal medium supplemented with βFGF (10 ng/ml), added to […]. At 3 days in vitro (DIV), βFGF medium was replaced with Leukemia Inhibitory Factor (LIF, Chemicon) (20 ng/ml) and Brain Derived Neurotrophic Factor (BDNF, Peprotech) (20 ng/ml). Fresh medium was added every three days. For both viability and differentiation assays positive and negative controls consisted of Cultrex-BME® substrate (R&D systems) (1:100 dilution in basal medium) and untreated bottom well surfaces respectively. Cell viability was quantified via CellTiter 96® Aqueous Proliferation Assay (Promega) at 7 DIV as recommended in the Promega protocol. After calibrating the linear response between the cell number and absorbance values, proliferated cell populations were quantified (n=5) by using a Vmax microplate reader (Molecular Devices) at 490 nm wavelength. Values, reported as means±standard error of the mean, were blanked to their respective controls consisting of same substrates and cell culture media without cells.

human NSCs [3] = experiment: Imaging and cell proliferation assay (CellTiter 96 MTS) on assembled hydrogels, human NSCs; type: cell-based; conditions: 7 DIV; for cell viability / proliferated cell population (MTS): scaffolds 10 mg/ml, vs control, P<0.03
Protocol: as §9

murine NSCs [4] = experiment: Immunofluorescence of differentiated NSC progeny on SAP scaffolds, murine; type: cell-based
Protocol: as §9
(§10) Immunofluorescence tests were performed for assaying the phenotypes of the differentiated human and murine NSC progenies. In the case of KLP and Ac-KLP just murine NSC have been used. Ac-KLP and KLP scaffolds were prepared at different concentrations in order to display three different stiffness values (viz. 100, 500 and 1000 Pa). This was done to assess the influence of scaffold concentration (and consequently its stiffness) over NSC differentiation. All the other peptides were tested at 1% v/w concentration instead. The following antibodies were used: rabbit polyclonal against GFAP (1:500, DakoCytomation) for astrocytes, mouse monoclonal against βIII-Tubulin (1:500, Covance) for neurons, mouse monoclonal against GalC (1:200, Chemicon) and O4 (1:200, Chemicon) for oligodendrocyes. Secondary Abs were Goat anti Mouse Alexa 488 (1:1000, Molecular Probes), Goat anti Mouse Cy3 (1:1000, Jackson Immunoresearch), Goat anti Rabbit Cy3 (1:1000, Jackson Immunoresearch). Cell nuclei were counterstained with DAPI (Molecular Probes). Quantitative analyses were performed by counting 100-300 cells for each of 9 randomly chosen fields over a total of 3 independent experiments. Phase contrast and fluorescence images of the adhering cells were acquired via Zeiss microscopes Axioplan 2 and ApoTome System at one week after seeding.

human NSCs [5] = experiment: Immunofluorescence of differentiated NSC progeny on SAP scaffolds, human; type: cell-based; conditions: 1% scaffold, compared to Cultrex positive control
Protocol: as §9
as §10, with “Cell nuclei were counterstained with DAPI (Molecular Probes).” left out

[6] = system: murine NSCs in adhesion (Laminin coated dishes); experiment: Phage biopanning (Ph.D.-7 library) against adhering NSCs; type: binding; conditions: for Frequency, eluted phage clones / Frequency, internalized phage clones: clones sequenced after three rounds of biopanning; for Frequency, eluted phage clones / %, eluted phage clones: cell membrane bound phages (MP); for %, eluted phage clones / %, internalized phage clones: consensus after three rounds of biopanning; for %, internalized phage clones / Frequency, internalized phage clones: internalized clones (IP)
Protocol: as §1
NSCs, three million per plate, were seeded over Laminin coated 10 cm Petri dishes (Falcon). After an overnight incubation in 10 ml of βFGF supplemented (10 ng/ml) neural basal media, cells were washed with pre-warmed Incubation Medium.
as §2, §3, §4, §5, §6, §7, §8

[7] = 1% scaffold, compared to Cultrex positive control

Substance	Frequency, eluted phage clones [6]	%, eluted phage clones [6] [%]	%, internalized phage clones [6] [%]	Frequency, internalized phage clones [6]	further results
ALTPWAF (Prepared by synthesis) [heptapeptide domain found by phage biopanning against NSCs]					%, eluted phage clones [1]: 10.52%; Frequency, eluted phage clones [1]: 2
Ac-FAQRVPPGGGLDLKLDLKLDLK-CONH2 (Ac-FAQRVPPGGGLDLKLDLKLDLK-NH2)					cell morphology, adhesion and spreading on assembled hydrogels (murine NSCs [2]): spread and branched cells; cell viability / proliferated cell population (MTS) (murine NSCs [2]): cell population was bigger; cell morphology, adhesion and spreading on assembled hydrogels (human NSCs [3]): spread and branched cells; cell viability / proliferated cell population (MTS) (human NSCs [3]): cell population was bigger; number of neurons (βIII-Tubulin) obtained (murine NSCs [4]; [7]): significantly higher; number of oligodendrocytes (GalC/O4) obtained (murine NSCs [4]; [7]): significantly higher; number of neurons (βIII-Tubulin) obtained (human NSCs [5]): significantly higher; number of oligodendrocytes (GalC/O4) obtained (human NSCs [5]): significantly higher
FAQRVPP (Prepared by synthesis) [heptapeptide domain found by phage biopanning against NSCs]	15	62.5	53.5		
GETRAPL (Prepared by synthesis) [heptapeptide domain found by phage biopanning against NSCs]					%, internalized phage clones [1]: 14.28%; Frequency, internalized phage clones [1]: 2; %, eluted phage clones [1]: 10.52%; Frequency, eluted phage clones [1]: 2
GKPMPPM (Prepared by synthesis) [heptapeptide domain found by phage biopanning against NSCs]					%, eluted phage clones [1]: 10.52%; Frequency, eluted phage clones [1]: 2
HAIYPRH (Prepared by synthesis) [heptapeptide domain found by phage biopanning against NSCs]					%, internalized phage clones [1]: 28.57%; Frequency, internalized phage clones [1]: 4; %, eluted phage clones [1]: 5.26%; Frequency, eluted phage clones [1]: 1
KLPGWSG (Prepared by synthesis) [heptapeptide domain found by phage biopanning against NSCs]					%, eluted phage clones [1]: 47.36%; Frequency, eluted phage clones [1]: 9
LQAIPRN (Prepared by synthesis) [heptapeptide domain found by phage biopanning against NSCs]			3.5	1	
LTTGSGS	1	4.2			
NH2-KLPGWSGGGGLDLKLDLKLDLK-CONH2 (H-KLPGWSGGGGLDLKLDLKLDLK-NH2)					cell morphology, adhesion and spreading on assembled hydrogels (murine NSCs [2]): fostered NSCs adhesion and spreading similarly to FAQ; differentiated neurons (βIIITubulin positive cells) in correspondence of stiffness reductions (murine NSCs [4]; scaffold stiffness 100, 500 and 1000 Pa): significant increments
NH2-QHLPRDHGGGLDLKLDLKLDLK-CONH2 (H-QHLPRDHGGGLDLKLDLKLDLK-NH2)					cell viability / proliferated cell population (MTS) (murine NSCs [2]): significantly fostered cell viability; also recorded: significantly favored; cell viability / proliferated cell population (MTS) (human NSCs [3]): significantly fostered cell viability; also recorded: significantly favored
QHLPRDH (Prepared by synthesis) [heptapeptide domain found by phage biopanning against NSCs]	2	8.3	14.2	4	
SASHWQI (Prepared by synthesis) [heptapeptide domain found by phage biopanning against NSCs]			3.5	1	
SILPYPY (Prepared by synthesis) [heptapeptide domain found by phage biopanning against NSCs]					%, internalized phage clones [1]: 14.28%; Frequency, internalized phage clones [1]: 2
SLPKLPP (Prepared by synthesis) [heptapeptide domain found by phage biopanning against NSCs]			3.5	1	
SSELVTH	1	4.2			
SSLSVND (Prepared by synthesis) [heptapeptide domain found by phage biopanning against NSCs]	1	4.2	10.7	3	
TAVNSDA	1	4.2			
TPLSSHS (Prepared by synthesis) [heptapeptide domain found by phage biopanning against NSCs]			3.5	1	
TPPFAAW	1	4.2			
TTTPTTP	1	4.2			
YIIPMHD (Prepared by synthesis) [heptapeptide domain found by phage biopanning against NSCs]	1	4.2	3.5	1	
YRMPIWP (Prepared by synthesis) [heptapeptide domain found by phage biopanning against NSCs]			3.5	1	
